Patent US20030040438A1, “Method for increasing the yield of beans” (priority 2000, published 2003)

Tested on: soybean seeds (Variety: Halosoy)
Assay: Test of Yield Increasing Effect on Soybeans (seed drenching)
Format: in vivo
Settings: seeds drenched 12 hours; for Productive grain increasing index: average number of productive grains per plant in non-treated section = 100%; for Yield increasing index per plant: harvest 110 days after sowing, yield (g) in non-treated section = 100%; for One grain weight: weight per selected bean after threshing and drying, non-treated 0.22 g

**Q.** `CCC1(C(=O)NC(C)c2ccc(Cl)cc2)C(C)C1(Cl)Cl` [Carpropamid, N-(R)-[1-(4-chloro-phenyl)-ethyl]-2,2-dichloro-1-ethyl-3t-methyl-1r-cyclopropanecarboxamide] was tested. Which “Productive grain increasing index” value (1 ppm) did it give?
**A.** Its value is 127.1%.

**Q.** And the “Yield increasing index per plant” value (1 ppm)?
**A.** Its value is 131.1%.

**Q.** And the One grain weight (1 ppm)?
**A.** The One grain weight was 0.23 g.

**Q.** What about the “Productive grain increasing index” value (10 ppm) of the same compound?
**A.** Its value is 163.5%.

**Q.** And the “Yield increasing index per plant” value (10 ppm)?
**A.** Its value is 173.1%.

**Q.** And the One grain weight (10 ppm)?
**A.** Its One grain weight is 0.23 g.

**Q.** And the “Productive grain increasing index” value (100 ppm)?
**A.** The value was 163.4%.

**Q.** And the “Yield increasing index per plant” value (100 ppm)?
**A.** Its value is 169.1%.

**Q.** What about the One grain weight (100 ppm) of the same compound?
**A.** Its One grain weight is 0.23 g.

**Q.** And the “Productive grain increasing index” value (1000 ppm)?
**A.** The value was 126.8%.

**Q.** What about the “Yield increasing index per plant” value (1000 ppm) of the same compound?
**A.** The value was 132.2%.

**Q.** And the One grain weight (1000 ppm)?
**A.** The One grain weight was 0.23 g.
